According to patent publication US20240316136A1, “ANESTHETIC METHOD OF SPOTTED SEABASS WITH PLANT ESSENTIAL OILS” (Shanghai Ocean University, priority 2024, published 2024):

How the values were obtained:
Format in all cases: in vivo, Lateolabrax maculatus
spotted seabass [1] = test: Sedation, anesthesia induction and resuscitation time of spotted seabass in anesthetic bath; design: key to Stage IV (deep anesthesia) time / Resuscitation time / Stage I (light sedation) time / Stage II (deep sedation) time / Stage III (light anesthesia) time: —: No anesthetic effect
Procedure: • 1. Healthy spotted seabass with uniform sizes and uniform respiration rates were selected and acclimated for 24 h. During the acclimatization period, the water temperature was 22±1° C., the salinity was 16%, the dissolved oxygen was 6 mg/L, pH was 7.5, and the fish-water ratio was 1:50. The metabolic wastes of the spotted seabass were discharged during acclimatization period. • 2. The emulsified Cinnamomum camphora essential oils were added to the aquariums respectively. The water temperature was controlled at 22±1° C. […] The spotted seabass were transferred to aquariums (5 fish per aquarium) with different concentrations of the Cinnamomum camphora essential oil, MS-222 and linalool anesthetics, and anesthetic concentrations, sedation concentrations and duration of anesthesia were recorded for the spotted seabass. • 4. The fish were extracted once deep anesthesia was achieved. Recovery was defined as the restoration of fish to their typical swimming behavior; the resuscitation time of the spotted seabass were recorded. • 5. The optimal concentration range was obtained, and oxidative stress and tissue injury were measured. [table] One-way analysis of variance (ANOVA) was used to evaluate the data (anesthetic induction and recovery time) using SPSS 26.0 software (SPSS Inc., Chicago, IL, USA). The significant variation was determined using Duncan's multiple range test (P<0.05). Graphs were created using Origin software.

[2] = test system: spotted seabass gill tissue; test: Gill tissue histopathology by light microscope after anesthesia
Procedure: • 1. Healthy spotted seabass with uniform sizes and uniform respiration rates were selected and acclimated for 24 h. During the acclimatization period, the water temperature was 22±1° C., the salinity was 16%, the dissolved oxygen was 6 mg/L, pH was 7.5, and the fish-water ratio was 1:50. The metabolic wastes of the spotted seabass were discharged during acclimatization period. • 2. The emulsified Cinnamomum camphora essential oils were added to the aquariums respectively. The water temperature was controlled at 22±1° C. The concentrations of the emulsified Cinnamomum camphora essential oil were 10, 20, 30, 50, 100, 150, 200 mg/L, respectively, and the same concentrations of MS-222 anesthesia solution and linalool solution were prepared at the same time. • 3. The spotted seabass were transferred to aquariums (5 fish per aquarium) with different concentrations of the Cinnamomum camphora essential oil, MS-222 and linalool anesthetics, and anesthetic concentrations, sedation concentrations and duration of anesthesia were recorded for the spotted seabass. • 4. The fish were extracted once deep anesthesia was achieved. Recovery was defined as the restoration of fish to their typical swimming behavior; the resuscitation time of the spotted seabass were recorded. • 5. The optimal concentration range was obtained, and oxidative stress and tissue injury were measured. […]

spotted seabass [3] = test: Blood biochemical analysis (RBC, HCT, HGB); conditions: after deep anesthesia; comparison between anesthetic groups, p<0.05
Procedure: (§1) In accordance with the principles and guiding regulations established by the Animal Protection and Utilization Committee of Shanghai Ocean University (SHOU-DW-2022-059), 200 mg/L MS-222 was used to anesthetize fish. Venous-arterial blood samples were obtained from the caudal vein using a 1 mL syringe with 10% EDTA as an anticoagulant and then preserved in anticoagulation tubes. In addition, another portion of the blood was collected without anticoagulant, then kept at 4° C. for a duration of 12 hours for stationary. The coagulated blood was centrifuged at 4000×g for 20 min at 4° C. The serum was extracted and placed in the refrigerator at −40° C. for testing.
Red blood cell count (RBC), haematocrit (HCT), and hemoglobin (HGB) in blood samples were measured in a Myriad Veterinary Automatic Blood Cell Analyser (BC-2800vet, Shenzhen, China).

spotted seabass [4] = test: Energy metabolism indexes (glucose, lactic acid); conditions: P<0.05
Procedure: as §1
(§2) Acid phosphatase (ACP), glucose (GLU) and lactic acid (LD) kits (Nanjing Jiancheng Bioengineering Institute, Nanjing, China) were used to measure ACP, GLU and LD levels.

spotted seabass [5] = test: Oxidative stress indicators (SOD, CAT, GSH-Px) in blood
Procedure: as §1
Superoxide Dismutase (SOD), Catalase (CAT) and Glutathione Peroxidase (GSH-Px) kits (Nanjing Jiancheng Bioengineering Institute, Nanjing, China) were used to determine SOD, CAT and GSH-Px activities in blood.

spotted seabass [6] = test: Immunological indicators (ACP/AKP, IgM, LZM) in serum
Procedure: as §1, §2
Lysozyme (LZM) activity was determined by the method of De Souza et al. Serum immunoglobulin M (IgM) concentration was measured using a fish ELISA kit (Nanjing Jiancheng Bioengineering Institute, Nanjing, China).

[7] = 100 mg/L in water, listed as linalool
[8] = after 24 h of recovery, vs MS-222 and Cinnamomum camphora essential oil
[9] = after 24 h of recovery, vs initial

C=CC(C)(O)CCC=C(C)C (centres unmarked) [Linalool, 1,6-Octadien-3-ol,3,7-dimethyl]
Resuscitation time (spotted seabass [1]; 5 mg/L in water): — | Stage I (light sedation) time (spotted seabass [1]; 5 mg/L in water): — | Stage II (deep sedation) time (spotted seabass [1]; 5 mg/L in water): — | Stage III (light anesthesia) time (spotted seabass [1]; 5 mg/L in water): — | Stage IV (deep anesthesia) time (spotted seabass [1]; 5 mg/L in water): — | Resuscitation time (spotted seabass [1]; 10 mg/L in water): — | Stage I (light sedation) time (spotted seabass [1]; 10 mg/L in water): 88.67 ± 3.21 s | Stage II (deep sedation) time (spotted seabass [1]; 10 mg/L in water): — | Stage III (light anesthesia) time (spotted seabass [1]; 10 mg/L in water): — | Stage IV (deep anesthesia) time (spotted seabass [1]; 10 mg/L in water): — | Resuscitation time (spotted seabass [1]; 20 mg/L in water): — | Stage I (light sedation) time (spotted seabass [1]; 20 mg/L in water): 70.00 ± 3.00 s | Stage II (deep sedation) time (spotted seabass [1]; 20 mg/L in water): 97.00 ± 4.58 s | Stage III (light anesthesia) time (spotted seabass [1]; 20 mg/L in water): — | Stage IV (deep anesthesia) time (spotted seabass [1]; 20 mg/L in water): — | Resuscitation time (spotted seabass [1]; 30 mg/L in water): — | Stage I (light sedation) time (spotted seabass [1]; 30 mg/L in water): 60.00 ± 3.00 s | Stage II (deep sedation) time (spotted seabass [1]; 30 mg/L in water): 84.67 ± 3.51 s | Stage III (light anesthesia) time (spotted seabass [1]; 30 mg/L in water): 103.33 ± 3.51 s | Stage IV (deep anesthesia) time (spotted seabass [1]; 30 mg/L in water): — | Resuscitation time (spotted seabass [1]; 50 mg/L in water): 235.00 ± 2.00 s | Stage I (light sedation) time (spotted seabass [1]; 50 mg/L in water): 42.67 ± 3.51 s | Stage III (light anesthesia) time (spotted seabass [1]; 50 mg/L in water): 115.00 ± 4.00 s | Stage IV (deep anesthesia) time (spotted seabass [1]; 50 mg/L in water): 323.33 ± 2.52 s | Resuscitation time (spotted seabass [1]; 100 mg/L in water): 255.33 ± 2.08 s | Stage I (light sedation) time (spotted seabass [1]; 100 mg/L in water): 31.67 ± 1.15 s | Stage III (light anesthesia) time (spotted seabass [1]; 100 mg/L in water): 103.67 ± 2.52 s | Stage IV (deep anesthesia) time (spotted seabass [1]; 100 mg/L in water): 213.00 ± 1.73 s | Resuscitation time (spotted seabass [1]; [7]): 344.00 s | Stage IV (deep anesthesia) time (spotted seabass [1]; [7]): 155.33 s | Resuscitation time (spotted seabass [1]; 150 mg/L in water): 270.00 ± 3.00 s | Stage I (light sedation) time (spotted seabass [1]; 150 mg/L in water): 22.33 ± 2.52 s | Stage II (deep sedation) time (spotted seabass [1]; 150 mg/L in water): 44.00 ± 2.65 s | Stage III (light anesthesia) time (spotted seabass [1]; 150 mg/L in water): 91.67 ± 1.53 s | Stage IV (deep anesthesia) time (spotted seabass [1]; 150 mg/L in water): 155.33 ± 3.51 s | Resuscitation time (spotted seabass [1]; 200 mg/L in water): 310.00 ± 3.00 s | Stage I (light sedation) time (spotted seabass [1]; 200 mg/L in water): 16.00 ± 1.00 s | Stage II (deep sedation) time (spotted seabass [1]; 200 mg/L in water): 37.00 ± 1.73 s | Stage III (light anesthesia) time (spotted seabass [1]; 200 mg/L in water): 86.00 ± 2.65 s | Stage IV (deep anesthesia) time (spotted seabass [1]; 200 mg/L in water): 141.00 ± 5.29 s | Optimal anesthetic concentration (spotted seabass [1]; criterion: induction in around 3 min and recovery within 5 min): 100 mg/L | Concentration showing deep sedation (spotted seabass [1]; in vivo): 20 mg/L | Concentration showing light anesthesia effect (Stage III) (spotted seabass [1]; in vivo): 30 mg/L | Concentration showing light sedation effect (Stage I) (spotted seabass [1]; in vivo): 10 mg/L | Minimum concentration required to achieve profound anesthesia (Stage IV) (spotted seabass [1]; in vivo, iv): 50 mg/L | Gill tissue histopathological changes [2]: swollen lamellar epithelium | Percentage of hematocrit (spotted seabass [3]): lower | Glucose concentration (spotted seabass [4]; [8]): higher | Lactic acid concentration (spotted seabass [4]; [8]): lower | Glucose concentration (spotted seabass [4]; after anesthesia, comparison between anesthetic groups): Greater | Lactic acid level (spotted seabass [4]; after anesthesia, vs MS-222 and Cinnamomum camphora essential oil): greater | GSH-Px activity (spotted seabass [5]; [9]): still higher than the initial levels | SOD activity (spotted seabass [5]; [9]): still higher than the initial levels | SOD, CAT and GSH-Px activities (spotted seabass [5]; after anesthesia): increasing trend | IgM concentration (spotted seabass [6]; after anesthesia): decreased | LZM activity (spotted seabass [6]; after anesthesia, change from initial): increased | LZM activity (spotted seabass [6]; after anesthesia, comparison between anesthetic groups, P<0.05): higher | ACP activity (spotted seabass [6]; after anesthesia, vs MS-222 and Cinnamomum camphora essential oil, P<0.05): higher | AKP activity (spotted seabass [6]; on exposure to anesthetic): increased
